Calls of active or inactive are those of the source. The calls are words filed in the database; no cut-off is given here.
How the values were obtained:
Streptococcus pyogenes [1] = test: Potentiation of ciprofloxacin-induced antibacterial activity against Streptococcus pyogenes ATCC 14289 assessed as minimum modulatory concentration up to 32 uM measured after 16 hrs in presence of MIC/4 ciprofloxacin; format: functional; conditions: ATCC 14289, 16 h, read-out: MEC
Escherichia coli [2] = test: Potentiation of methicillin-induced antibacterial activity against Escherichia coli ATCC 43894 assessed as minimum modulatory concentration up to 32 uM measured after 16 hrs in presence of MIC/4 methicillin; format: functional; conditions: ATCC 43894, 16 h, read-out: MEC
Escherichia coli [3] = test: Potentiation of geneticin-induced antibacterial activity against Escherichia coli ATCC 43894 assessed as minimum modulatory concentration up to 32 uM measured after 16 hrs in presence of MIC/4 geneticin; format: functional; conditions: ATCC 43894, 16 h, read-out: MEC
Klebsiella pneumoniae [4] = test: Toxicity in Klebsiella pneumoniae ATCC 13883 up to 32 uM measured after 16 hrs; format: organism-based
Macrophage cell line [5] = test: Cytotoxicity against human PBMC-differentiated macrophages treated for 24 hrs followed by compound washout and measured after 48 hrs by MTT assay; format: cell-based
Staphylococcus aureus [6] = test: Potentiation of methicillin-induced antibacterial activity against Staphylococcus aureus ATCC 33592 assessed as minimum modulatory concentration up to 32 uM measured after 16 hrs in presence of MIC/4 methicillin; format: functional; conditions: ATCC 33592, 16 h, read-out: MEC
Staphylococcus aureus [7] = test: Potentiation of ciprofloxacin-induced antibacterial activity against Staphylococcus aureus ATCC 33592 assessed as minimum modulatory concentration up to 32 uM measured after 16 hrs in presence of MIC/4 ciprofloxacin; format: functional; conditions: ATCC 33592, 16 h, read-out: MEC
Macrophage cell line [8] = test: Induction of prostaglandin production in human PBMC-differentiated macrophages after 24 hrs by ELISA; format: cell-based
Enterococcus faecium [9] = test: Potentiation of methicillin-induced antibacterial activity against Enterococcus faecium ATCC 700221 assessed as minimum modulatory concentration up to 32 uM measured after 16 hrs in presence of MIC/4 methicillin; format: functional; conditions: ATCC 700221, 16 h, read-out: MEC
Streptococcus pyogenes [10] = test: Potentiation of methicillin-induced antibacterial activity against Streptococcus pyogenes ATCC 14289 assessed as minimum modulatory concentration up to 32 uM measured after 16 hrs in presence of MIC/4 methicillin; format: functional; conditions: ATCC 14289, 16 h, read-out: MEC
Klebsiella pneumoniae [11] = test: Potentiation of tetracycline-induced antibacterial activity against Klebsiella pneumoniae ATCC 13883 assessed as minimum modulatory concentration up to 32 uM measured after 16 hrs in presence of MIC/4 tetracycline; format: functional; conditions: ATCC 13883, 16 h, read-out: MEC
Escherichia coli [12] = test: Potentiation of tetracycline-induced antibacterial activity against Escherichia coli ATCC 43894 assessed as minimum modulatory concentration up to 32 uM measured after 16 hrs in presence of MIC/4 tetracycline; format: functional; conditions: ATCC 43894, 16 h, read-out: MEC
Klebsiella pneumoniae [13] = test: Potentiation of geneticin-induced antibacterial activity against Klebsiella pneumoniae ATCC 13883 assessed as minimum modulatory concentration up to 32 uM measured after 16 hrs in presence of MIC/4 geneticin; format: functional; conditions: ATCC 13883, 16 h, read-out: MEC
Enterococcus faecium [14] = test: Potentiation of erythromycin-induced antibacterial activity against Enterococcus faecium ATCC 700221 assessed as minimum modulatory concentration up to 32 uM measured after 16 hrs in presence of MIC/4 erythromycin; format: functional; conditions: ATCC 700221, 16 h, read-out: MEC
Klebsiella pneumoniae [15] = test: Potentiation of methicillin-induced antibacterial activity against Klebsiella pneumoniae ATCC 13883 assessed as minimum modulatory concentration up to 32 uM measured after 16 hrs in presence of MIC/4 methicillin; format: functional; conditions: ATCC 13883, 16 h, read-out: MEC
Klebsiella pneumoniae [16] = test: Potentiation of ciprofloxacin-induced antibacterial activity against Klebsiella pneumoniae ATCC 13883 assessed as minimum modulatory concentration up to 32 uM measured after 16 hrs in presence of MIC/4 ciprofloxacin; format: functional; conditions: ATCC 13883, 16 h, read-out: MEC
Pseudomonas aeruginosa [17] = test: Potentiation of geneticin-induced antibacterial activity against Pseudomonas aeruginosa ATCC BAA-2108 assessed as minimum modulatory concentration up to 32 uM measured after 16 hrs in presence of MIC/4 geneticin; format: functional; conditions: ATCC BAA-2108, 16 h, read-out: MEC
Macrophage cell line [18] = test: Antiinflammatory activity in human PBMC-differentiated macrophages assessed as inhibition of LPS-induced IL-8 production at 0.01 to 10 uM measured after 24 hrs by ELISA; format: functional, cell-based
Macrophage cell line [19] = test: Induction of TNFalpha production in human PBMC-differentiated macrophages after 24 hrs by ELISA; format: cell-based
Pseudomonas aeruginosa [20] = test: Potentiation of erythromycin-induced antibacterial activity against Pseudomonas aeruginosa ATCC BAA-2108 assessed as minimum modulatory concentration up to 32 uM measured after 16 hrs in presence of MIC/4 erythromycin; format: functional; conditions: ATCC BAA-2108, 16 h, read-out: MEC
Streptococcus pyogenes [21] = test: Potentiation of tetracycline-induced antibacterial activity against Streptococcus pyogenes ATCC 14289 assessed as minimum modulatory concentration up to 32 uM measured after 16 hrs in presence of MIC/4 tetracycline; format: functional; conditions: ATCC 14289, 16 h, read-out: MEC
Pseudomonas aeruginosa [22] = test: Potentiation of methicillin-induced antibacterial activity against Pseudomonas aeruginosa ATCC BAA-2108 assessed as minimum modulatory concentration up to 32 uM measured after 16 hrs in presence of MIC/4 methicillin; format: functional; conditions: ATCC BAA-2108, 16 h, read-out: MEC
Staphylococcus aureus [23] = test: Potentiation of geneticin-induced antibacterial activity against Staphylococcus aureus ATCC 33592 assessed as minimum modulatory concentration up to 32 uM measured after 16 hrs in presence of MIC/4 geneticin; format: functional; conditions: ATCC 33592, 16 h, read-out: MEC
Escherichia coli [24] = test: Toxicity in Escherichia coli ATCC 43894 up to 32 uM measured after 16 hrs; format: organism-based
Macrophage cell line [25] = test: Antiinflammatory activity in human PBMC-differentiated macrophages assessed as inhibition of LPS-induced prostaglandin production at 0.01 to 10 uM measured after 24 hrs by ELISA; format: functional, cell-based
Pseudomonas aeruginosa [26] = test: Potentiation of tetracycline-induced antibacterial activity against Pseudomonas aeruginosa ATCC BAA-2108 assessed as minimum modulatory concentration up to 32 uM measured after 16 hrs in presence of MIC/4 tetracycline; format: functional; conditions: ATCC BAA-2108, 16 h, read-out: MEC
Pseudomonas aeruginosa [27] = test: Toxicity in Pseudomonas aeruginosa ATCC BAA-2108 up to 32 uM measured after 16 hrs; format: organism-based; conditions: in vitro
Streptococcus pyogenes [28] = test: Toxicity in Streptococcus pyogenes ATCC 14289 up to 32 uM measured after 16 hrs; format: organism-based
Pseudomonas aeruginosa [29] = test: Potentiation of ciprofloxacin-induced antibacterial activity against Pseudomonas aeruginosa ATCC BAA-2108 assessed as minimum modulatory concentration up to 32 uM measured after 16 hrs in presence of MIC/4 ciprofloxacin; format: functional; conditions: ATCC BAA-2108, 16 h, read-out: MEC
Enterococcus faecium [30] = test: Potentiation of tetracycline-induced antibacterial activity against Enterococcus faecium ATCC 700221 assessed as minimum modulatory concentration up to 32 uM measured after 16 hrs in presence of MIC/4 tetracycline; format: functional; conditions: ATCC 700221, 16 h, read-out: MEC
Streptococcus pyogenes [31] = test: Potentiation of geneticin-induced antibacterial activity against Streptococcus pyogenes ATCC 14289 assessed as minimum modulatory concentration up to 32 uM measured after 16 hrs in presence of MIC/4 geneticin; format: functional; conditions: ATCC 14289, 16 h, read-out: MEC
Staphylococcus aureus [32] = test: Potentiation of tetracycline-induced antibacterial activity against Staphylococcus aureus ATCC 33592 assessed as minimum modulatory concentration up to 32 uM measured after 16 hrs in presence of MIC/4 tetracycline; format: functional; conditions: ATCC 33592, 16 h, read-out: MEC
Klebsiella pneumoniae [33] = test: Potentiation of erythromycin-induced antibacterial activity against Klebsiella pneumoniae ATCC 13883 assessed as minimum modulatory concentration up to 32 uM measured after 16 hrs in presence of MIC/4 erythromycin; format: functional; conditions: ATCC 13883, 16 h, read-out: MEC

SMILES	minimal effective concentration (Streptococcus pyogenes [1]) [µM]	minimal effective concentration (Escherichia coli [2]) [µM]	minimal effective concentration (Escherichia coli [3]) [µM]	Activity (Klebsiella pneumoniae [4])	IC50 (Macrophage cell line [5]) [µM]	minimal effective concentration (Staphylococcus aureus [6]) [µM]	minimal effective concentration (Staphylococcus aureus [7]) [µM]	Activity (Macrophage cell line [8])	minimal effective concentration (Enterococcus faecium [9]) [µM]	minimal effective concentration (Streptococcus pyogenes [10]) [µM]	minimal effective concentration (Klebsiella pneumoniae [11]) [µM]	minimal effective concentration (Escherichia coli [12]) [µM]	minimal effective concentration (Klebsiella pneumoniae [13]) [µM]	minimal effective concentration (Enterococcus faecium [14]) [µM]	minimal effective concentration (Klebsiella pneumoniae [15]) [µM]	minimal effective concentration (Klebsiella pneumoniae [16]) [µM]	minimal effective concentration (Pseudomonas aeruginosa [17]) [µM]	inhibition (Macrophage cell line [18])	Activity (Macrophage cell line [19])	minimal effective concentration (Pseudomonas aeruginosa [20]) [µM]	further results
Cc1cc(C(=O)O)c(O)c(Cc2ccccc2)n1	> 32	> 32	> 32	Non-Toxic	> 100	> 32	> 32	Non-Toxic	> 32	> 32	> 32	> 32	> 32	> 32	> 32	> 32	> 32	inactive	Non-Toxic	> 32	minimal effective concentration (Streptococcus pyogenes [21]): 16 µM; minimal effective concentration (Pseudomonas aeruginosa [22]): > 32 µM; minimal effective concentration (Staphylococcus aureus [23]): > 32 µM; Activity (Escherichia coli [24]): Non-Toxic; inhibition (Macrophage cell line [25]): inactive; minimal effective concentration (Pseudomonas aeruginosa [26]): > 32 µM; Activity (Pseudomonas aeruginosa [27]): Non-Toxic; Activity (Streptococcus pyogenes [28]): Non-Toxic; minimal effective concentration (Pseudomonas aeruginosa [29]): > 32 µM; minimal effective concentration (Enterococcus faecium [30]): > 32 µM; minimal effective concentration (Streptococcus pyogenes [31]): > 32 µM; minimal effective concentration (Staphylococcus aureus [32]): > 32 µM; minimal effective concentration (Klebsiella pneumoniae [33]): > 32 µM
O=C(O)c1cnc(-c2ccccc2)c(O)c1	> 32	> 32	> 32	Non-Toxic	> 100	0.5	> 32	Non-Toxic	0.5	1	> 32	> 32	> 32	4	> 32	> 32	> 32	inactive	Non-Toxic	4	minimal effective concentration (Streptococcus pyogenes [21]): 4 µM; minimal effective concentration (Pseudomonas aeruginosa [22]): 16 µM; minimal effective concentration (Staphylococcus aureus [23]): 2 µM; Activity (Escherichia coli [24]): Non-Toxic; inhibition (Macrophage cell line [25]): inactive; minimal effective concentration (Pseudomonas aeruginosa [26]): > 32 µM; Activity (Pseudomonas aeruginosa [27]): Non-Toxic; Activity (Streptococcus pyogenes [28]): Non-Toxic; minimal effective concentration (Pseudomonas aeruginosa [29]): 4 µM; minimal effective concentration (Enterococcus faecium [30]): 1 µM; minimal effective concentration (Streptococcus pyogenes [31]): 8 µM; minimal effective concentration (Staphylococcus aureus [32]): 0.25 µM; minimal effective concentration (Klebsiella pneumoniae [33]): > 32 µM

Reference: ChEMBL document CHEMBL4257522, “Synthesis and preliminary anti-inflammatory and anti-bacterial evaluation of some diflunisal aza-analogs” (Medchemcomm, 2018)
